# Reference: ChEMBL document CHEMBL1201862, “PubChem BioAssay data set” (2004)
# The source made the active and inactive calls.
# Assays:
# [1] = target: T1, Rac GTPase-activating protein 1 (Homo sapiens, UniProt Q9H0H5); assay: MgcRacGAP GTPase-activating activity inhibitors, confirmation, biochemical, ADP Hunter fluorescence, primary and confirmatory (AID 624330); type: functional
# T1 sequence (Q9H0H5 whole entry): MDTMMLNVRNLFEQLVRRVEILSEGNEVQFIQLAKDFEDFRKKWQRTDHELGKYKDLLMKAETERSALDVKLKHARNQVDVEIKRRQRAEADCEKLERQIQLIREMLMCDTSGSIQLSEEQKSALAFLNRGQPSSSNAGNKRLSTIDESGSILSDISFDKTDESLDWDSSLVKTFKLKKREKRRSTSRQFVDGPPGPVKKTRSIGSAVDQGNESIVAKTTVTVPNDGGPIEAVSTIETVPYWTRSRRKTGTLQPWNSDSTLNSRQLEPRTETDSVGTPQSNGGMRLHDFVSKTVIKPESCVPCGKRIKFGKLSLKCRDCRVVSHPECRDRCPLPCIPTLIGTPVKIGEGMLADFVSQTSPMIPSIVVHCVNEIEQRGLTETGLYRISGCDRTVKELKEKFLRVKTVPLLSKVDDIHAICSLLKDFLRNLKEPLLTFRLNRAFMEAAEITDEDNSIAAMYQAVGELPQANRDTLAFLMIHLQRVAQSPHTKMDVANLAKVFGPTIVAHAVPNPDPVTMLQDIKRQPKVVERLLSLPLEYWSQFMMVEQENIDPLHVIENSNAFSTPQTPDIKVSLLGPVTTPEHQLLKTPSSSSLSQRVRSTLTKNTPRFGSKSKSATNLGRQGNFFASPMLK
# [2] = target: T2, Corticotropin-releasing factor receptor 2/Corticotropin-releasing factor-binding protein (Homo sapiens, UniProt P24387+Q13324); assay: activators of CRF receptor 2 with binding protein – uHTS hits, confirmation (AID 602473); type: functional; details: read-out: EC50_Mean
# T2 sequence (Q13324 whole entry): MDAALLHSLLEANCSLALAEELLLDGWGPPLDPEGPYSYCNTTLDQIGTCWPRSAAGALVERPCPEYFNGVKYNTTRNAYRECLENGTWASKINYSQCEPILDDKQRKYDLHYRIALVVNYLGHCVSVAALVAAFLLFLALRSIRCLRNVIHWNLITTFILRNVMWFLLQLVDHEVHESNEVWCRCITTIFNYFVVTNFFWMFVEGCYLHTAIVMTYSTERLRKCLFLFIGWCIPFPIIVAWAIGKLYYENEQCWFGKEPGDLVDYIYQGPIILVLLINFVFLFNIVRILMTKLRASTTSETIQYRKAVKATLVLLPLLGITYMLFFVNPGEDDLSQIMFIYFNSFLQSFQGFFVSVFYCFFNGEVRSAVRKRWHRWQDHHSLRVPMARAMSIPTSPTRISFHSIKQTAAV
# T2 sequence (P24387 whole entry): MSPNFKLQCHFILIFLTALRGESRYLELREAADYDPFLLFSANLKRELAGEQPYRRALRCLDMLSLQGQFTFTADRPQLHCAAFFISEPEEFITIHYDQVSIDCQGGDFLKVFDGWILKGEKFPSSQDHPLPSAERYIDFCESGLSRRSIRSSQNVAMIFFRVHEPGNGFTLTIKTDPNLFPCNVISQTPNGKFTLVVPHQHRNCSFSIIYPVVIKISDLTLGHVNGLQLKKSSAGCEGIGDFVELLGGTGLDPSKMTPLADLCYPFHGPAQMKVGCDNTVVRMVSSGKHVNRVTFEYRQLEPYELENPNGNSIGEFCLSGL
# Cytochrome P450 1A2 = target: T3, Cytochrome P450 1A2 (Homo sapiens, UniProt P05177);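 note: PubChem cytochrome P450 panel assay, CYP1A2 panel member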
# T3 sequence (P05177 whole entry): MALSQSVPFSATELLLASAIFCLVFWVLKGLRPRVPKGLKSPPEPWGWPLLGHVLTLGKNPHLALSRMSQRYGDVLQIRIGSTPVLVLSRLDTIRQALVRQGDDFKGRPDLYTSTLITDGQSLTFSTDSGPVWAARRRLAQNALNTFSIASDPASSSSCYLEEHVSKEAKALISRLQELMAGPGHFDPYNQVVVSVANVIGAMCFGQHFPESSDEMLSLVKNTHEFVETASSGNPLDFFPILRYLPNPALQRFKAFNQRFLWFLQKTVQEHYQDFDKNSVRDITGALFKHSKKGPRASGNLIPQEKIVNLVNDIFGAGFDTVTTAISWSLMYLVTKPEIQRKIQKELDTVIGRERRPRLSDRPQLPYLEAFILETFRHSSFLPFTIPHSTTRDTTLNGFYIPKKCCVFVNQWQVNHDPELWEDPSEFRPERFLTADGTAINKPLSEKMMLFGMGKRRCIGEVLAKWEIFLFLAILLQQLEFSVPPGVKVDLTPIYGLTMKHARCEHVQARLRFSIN
# [3] = HEp-2 cell cytotoxicity, dose response, cytotoxicity control for RSV inhibitor project, HTS (AID 2410); type: functional; details: human respiratory syncytial virus
# Cytochrome P450 2C19 = Cytochrome P450 2C19 (Homo sapiens, UniProt P33261); assay: Cytochrome panel assay with activity outcomes. Panel member name: p450-cyp2c19 Compounds with AC50 equal or less than 10 uM are considered active; type: functional; details: read-out: AC50
# Cytochrome P450 2C19, sequence (P33261 whole entry): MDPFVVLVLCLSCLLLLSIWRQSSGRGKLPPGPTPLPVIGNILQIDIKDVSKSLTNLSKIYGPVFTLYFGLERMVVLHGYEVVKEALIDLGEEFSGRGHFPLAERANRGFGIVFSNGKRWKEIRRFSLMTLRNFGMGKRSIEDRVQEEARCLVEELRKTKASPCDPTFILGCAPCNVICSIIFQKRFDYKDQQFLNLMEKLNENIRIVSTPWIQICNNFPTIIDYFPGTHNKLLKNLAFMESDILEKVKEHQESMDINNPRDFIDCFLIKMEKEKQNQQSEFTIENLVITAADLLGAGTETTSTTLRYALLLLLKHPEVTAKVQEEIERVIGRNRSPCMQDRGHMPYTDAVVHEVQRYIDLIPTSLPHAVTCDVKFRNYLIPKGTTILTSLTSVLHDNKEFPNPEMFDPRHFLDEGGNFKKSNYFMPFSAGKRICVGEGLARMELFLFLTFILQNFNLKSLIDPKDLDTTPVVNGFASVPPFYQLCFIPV
# Cytochrome P450 2C9 = Cytochrome P450 2C9 (Homo sapiens, UniProt P11712)
# Cytochrome P450 2C9, sequence (P11712 whole entry): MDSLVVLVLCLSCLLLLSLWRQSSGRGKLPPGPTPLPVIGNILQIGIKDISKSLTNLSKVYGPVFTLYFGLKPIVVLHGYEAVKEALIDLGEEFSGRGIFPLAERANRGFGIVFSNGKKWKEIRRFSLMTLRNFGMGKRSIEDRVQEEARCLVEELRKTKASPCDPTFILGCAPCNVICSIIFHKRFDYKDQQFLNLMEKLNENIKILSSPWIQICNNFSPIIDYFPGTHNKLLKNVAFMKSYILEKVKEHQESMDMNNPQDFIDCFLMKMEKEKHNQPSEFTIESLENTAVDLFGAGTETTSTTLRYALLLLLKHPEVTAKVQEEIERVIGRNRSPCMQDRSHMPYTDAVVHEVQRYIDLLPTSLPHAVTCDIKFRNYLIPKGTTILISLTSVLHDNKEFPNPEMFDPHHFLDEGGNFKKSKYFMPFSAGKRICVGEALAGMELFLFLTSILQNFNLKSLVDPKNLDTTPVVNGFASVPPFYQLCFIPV
# [4] = inhibitors of intracellular T. cruzi replication, confirmation, NIH3T3 host cells, beta-gal luminescence (AID 2044); type: functional, cell-based;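 note: intracellular parasites grown in NIH/3T3 mouse fibroblasts as host cells; luminescent beta-galactosidase reporter signal from transgenic T. cruzi replicating inside host cells; inhibitors lower the luminescence signal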
# [5] = cytotoxicity toward NIH3T3 fibroblasts, dose response, counter-screen, cell-based, ATP luminescence, mouse fibroblasts (AID 2010); type: functional;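 note: cells exposed to compound for about 90 hours before reading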
# Cytochrome P450 3A4 = Cytochrome P450 3A4 (Homo sapiens, UniProt P08684);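 note: CYP3A4 tested as one member of a cytochrome P450 panel screen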
# Cytochrome P450 3A4, sequence (P08684 whole entry): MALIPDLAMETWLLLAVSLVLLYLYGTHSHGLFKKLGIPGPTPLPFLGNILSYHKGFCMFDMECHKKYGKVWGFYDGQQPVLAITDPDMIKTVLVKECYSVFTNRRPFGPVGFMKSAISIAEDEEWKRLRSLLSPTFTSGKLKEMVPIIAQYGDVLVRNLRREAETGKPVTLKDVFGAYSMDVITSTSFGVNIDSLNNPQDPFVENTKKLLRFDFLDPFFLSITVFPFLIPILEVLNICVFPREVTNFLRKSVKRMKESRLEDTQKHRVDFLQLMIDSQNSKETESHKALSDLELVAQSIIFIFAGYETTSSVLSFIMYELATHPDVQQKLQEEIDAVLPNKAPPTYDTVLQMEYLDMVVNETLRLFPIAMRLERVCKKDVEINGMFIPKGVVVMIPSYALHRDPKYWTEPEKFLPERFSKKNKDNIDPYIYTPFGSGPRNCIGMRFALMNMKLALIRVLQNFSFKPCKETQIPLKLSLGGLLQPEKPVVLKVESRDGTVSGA
# Cytochrome P450 2D6 = Cytochrome P450 2D6 (Homo sapiens, UniProt P10635);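 note: CYP2D6 member of a cytochrome P450 panel assay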
# Cytochrome P450 2D6, sequence (P10635 whole entry): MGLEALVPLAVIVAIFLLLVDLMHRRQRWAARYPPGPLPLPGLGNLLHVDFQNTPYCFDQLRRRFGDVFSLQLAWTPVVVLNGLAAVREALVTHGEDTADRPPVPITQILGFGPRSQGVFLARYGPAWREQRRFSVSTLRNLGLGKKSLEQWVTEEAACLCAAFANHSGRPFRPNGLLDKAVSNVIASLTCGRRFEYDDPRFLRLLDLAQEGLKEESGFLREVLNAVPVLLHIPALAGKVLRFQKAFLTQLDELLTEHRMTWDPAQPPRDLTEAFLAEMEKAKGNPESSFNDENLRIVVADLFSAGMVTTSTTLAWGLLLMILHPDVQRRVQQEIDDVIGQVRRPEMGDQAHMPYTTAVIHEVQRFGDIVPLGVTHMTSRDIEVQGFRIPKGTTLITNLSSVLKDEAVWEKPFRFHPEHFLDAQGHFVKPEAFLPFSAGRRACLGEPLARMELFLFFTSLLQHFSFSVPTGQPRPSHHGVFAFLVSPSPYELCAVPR
# [6] = Luminescence Cell-Based Dose Response HTS to Identify Activators of Luciferase Translation or Activity in H4 […] Cells. [Related pubchem assays: 1829 (Project Summary), 1814 (Primary HTS)]; type: functional
# H4 = assay: Luminescence Cell-Based Dose Response HTS to Identify Activators of 5'UTR Stem-Loop Driven Prion Protein mRNA Translation in H4 Neuroglioblastoma Cells. [Related pubchem assays: 1829 (Project Summary), 1814 (Primary HTS)]; type: functional; details: Homo sapiens
compound,measurement,setting,value
COc1cc(/C=N/NC(=O)c2ccc(-n3cccc3)cc2)ccc1O,IC50,[1],23.9 µM (active)
COc1cc(/C=N/NC(=O)CCc2nnc(O)nc2O)ccc1O,IC50,[1],32.5 µM (active)
COc1ccc(CN2CCN(Cc3cccc(F)c3)CC2)cc1OC,IC50,[1],83 µM (active)
CNC(=O)C1CCN(S(=O)(=O)c2c(C)noc2/C=C/c2ccc(OC)cc2)CC1,EC50,[2],> 53 µM (inactive)
COc1ccc(NCCC#N)cc1,IC50,[1],79.1 µM (active)
Cc1nc(N)sc1CCN [AMTHAMINE],AC50,Cytochrome P450 1A2,31.6 µM (inconclusive)
O=C(COc1cccc2ccccc12)N/N=C/c1ccc(Sc2nc3ccccc3s2)o1,CC50,[3],10.8 µM (active)
COc1ccc(C(=O)N2CCC3(CCCN(C(=O)Nc4cccc(C#N)c4)C3)CC2)cc1,AC50,Cytochrome P450 2C19,39.8 µM (inconclusive)
same,AC50,Cytochrome P450 1A2,15.8 µM (inconclusive)
same,AC50,Cytochrome P450 2C9,39.8 µM (inconclusive)
O=C(CN1CCN(S(=O)(=O)c2ccc(Br)cc2)CC1)N/N=C/c1ccc(Br)s1,CC50,[3],22.2 µM (active)
same,EC50,[4],2.55 µM (active)
same,EC50,[5],> 60 µM (not active)
CCc1ccc(OCCOCCN2CCN(C)CC2)cc1,IC50,[1],89.4 µM (active)
Cc1c(N(C)C)c(=O)n(-c2ccccc2)n1C [AMINOPYRINE],AC50,Cytochrome P450 1A2,10 µM (inconclusive)
CN1CCN(c2ncc3nc(-c4ccccc4)c(=O)n(Cc4cccs4)c3n2)CC1,AC50,Cytochrome P450 1A2,15.8 µM (inconclusive)
O=C(Cn1c(C(=O)NCC2CCCO2)cc2sccc21)c1ccccc1 (centres undefined),IC50,[1],102 µM (active)
COc1ccccc1CN1CC[C@@]2(CCCN(C(=O)Oc3ccccc3)C2)C1,AC50,Cytochrome P450 1A2,10 µM (inconclusive)
same,AC50,Cytochrome P450 3A4,31.6 µM (inconclusive)
CCc1nnc(N/N=C/c2c(C)[nH]c3ccccc23)n1N,IC50,[1],51.7 µM (active)
O=C(c1cnccn1)N1CCC2(CCCN(c3ccc(-c4ccccc4)cc3)C2)CC1,AC50,Cytochrome P450 1A2,25.1 µM (inconclusive)
same,AC50,Cytochrome P450 2C9,12.6 µM (inconclusive)
CCC(C)OC(=O)C1=C(C)NC(=O)CC1c1ccccc1OC (centres undefined),AC50,Cytochrome P450 1A2,15.8 µM (inconclusive)
same,AC50,Cytochrome P450 3A4,39.8 µM (inconclusive)
CCCCN(CCCC)CCCOC(=O)c1ccc(N)cc1 [BUTACAINE],AC50,Cytochrome P450 1A2,10 µM (inconclusive)
Nc1nc(CSc2nnnn2-c2ccc(Cl)cc2)nc(N2CCOCC2)n1,AC50,Cytochrome P450 2C19,1 µM (inconclusive)
same,AC50,Cytochrome P450 2D6,2.51 µM (inconclusive)
same,AC50,Cytochrome P450 1A2,2.51 µM (inconclusive)
same,AC50,Cytochrome P450 2C9,5.62 µM (inconclusive)
NC(=O)OC[C@H](O)COc1ccc(Cl)cc1,AC50,Cytochrome P450 1A2,10 µM (inconclusive)
CCOC(=O)c1c(C)[nH]c(N=Nc2ccccc2)c1C,CC50,[3],34.9 µM (active)
COc1ccccc1NC(=O)C1CCN(S(=O)(=O)c2ccc3c(c2)NC(=O)C(C)S3)CC1 (centres undefined),CC50,[3],20.2 µM (active)
CC(=C/c1ccccc1)/C=N/n1c(S)nnc1-c1ccco1,IC50,[1],86.4 µM (active)
COC(=O)c1nn(-c2ccccc2)c(Cl)c1/C=N/OCc1ccc(Cl)cc1Cl,CC50,[3],23.8 µM (active)
O=C(NCCc1c[nH]c2ccccc12)c1cnc2sccn2c1=O,EC50,[6],53 µM (active)
same,EC50,H4,54.8 µM (inconclusive)
CC(C)C(=O)/N=c1\sc2cccc(F)c2n1C,CC50,[3],> 50 µM (active)
O=c1c(-c2cccc(Cl)c2)nc2cncnc2n1Cc1ccccc1,AC50,Cytochrome P450 2C19,0.0398 µM (inconclusive)
same,AC50,Cytochrome P450 2D6,39.8 µM (inconclusive)
Cc1cccc(CNc2ccnc(-c3ccccc3C(F)(F)F)n2)c1,AC50,Cytochrome P450 2D6,25.1 µM (inconclusive)
same,AC50,Cytochrome P450 3A4,3.16 µM (inconclusive)
same,AC50,Cytochrome P450 2C9,1.26 µM (inconclusive)
O=C(N/N=C/c1ccc(Br)s1)c1c[nH]c2ccccc12,CC50,[3],37.3 µM (active)
COc1ccccc1OCCCCCCN1CCOCC1,IC50,[1],184 µM (active)
O=S(=O)(c1ccccc1)N1CCC[C@@]2(CCN(Cc3ccccc3)C2)C1,AC50,Cytochrome P450 1A2,20 µM (inconclusive)
same,AC50,Cytochrome P450 3A4,1.26 µM (inconclusive)
Cc1nc2cnc(N3CCN(C)CC3)nc2n(Cc2cccs2)c1=O,AC50,Cytochrome P450 2D6,15.8 µM (inconclusive)
same,AC50,Cytochrome P450 3A4,25.1 µM (inconclusive)
Cc1ccccc1[C@]1(C)ON(c2ccccc2C(F)(F)F)C1=O,CC50,[3],21.8 µM (active)
CSc1ccc(CNC(=O)Cc2ccc(NC(=O)C3=C(C)OCCS3)cc2)cc1,EC50,[6],1.92 µM (active)
CC(=O)[C@@H]1CC[C@H]2[C@H]3CC[C@H]4C[C@@H](O)CC[C@]4(C)[C@@H]3CC[C@]12C,AC50,Cytochrome P450 2C19,20 µM (inconclusive)
same,AC50,Cytochrome P450 1A2,10 µM (inconclusive)
same,AC50,Cytochrome P450 3A4,15.8 µM (inconclusive)
NC[C@@H]1O[C@H](c2ccccc2)Cc2c1ccc(O)c2O,AC50,Cytochrome P450 2D6,31.6 µM (inconclusive)
same,AC50,Cytochrome P450 1A2,15.8 µM (inconclusive)
same,AC50,Cytochrome P450 3A4,31.6 µM (inconclusive)
COc1ccc(/C=N/c2ccc3[nH]ncc3c2)c(O)c1,IC50,[1],35.3 µM (active)
CC(=O)O[C@H]1CC[C@@]2(C)C(=CC[C@@H]3[C@H]4CC[C@@H]([C@H](C)C(=O)O)[C@]4(C)CC[C@H]32)C1,AC50,Cytochrome P450 1A2,3.16 µM (inconclusive)
COc1ccc(C(=O)Nc2ccccc2)cc1NC(=O)c1ccc([N+](=O)[O-])cc1,CC50,[3],> 50 µM (active)
same,EC50,[4],1.33 µM (active)
same,EC50,[5],> 60 µM (not active)
CCOc1c2ccc(C(=O)NCc3ccc(OC(F)(F)F)cc3)cc2nn1C,AC50,Cytochrome P450 2C19,20 µM (inconclusive)
same,AC50,Cytochrome P450 2D6,3.16 µM (inconclusive)
COc1cccc(C(=O)N2CCN(C3CCN(Cc4ccccc4)CC3)CC2)c1OC,IC50,[1],120 µM (active)
O=C1C(/C=N/c2ccc(F)cc2)=C(O)c2ccccc21,EC50,[6],0.173 µM (active)
same,EC50,H4,0.38 µM (active)
COc1cc(/C=C/C(=O)OCC(=O)Nc2ccc(S(=O)(=O)N3CCCC3)cc2)ccc1O,IC50,[1],60 µM (active)
CCOc1ccc(-c2cc(C(=O)N/N=C(\C)c3cccnc3)c3ccccc3n2)cc1,EC50,H4,84.3 µM (inconclusive)
CC(C)CN1CCCC2(CCN(C(=O)c3cc(C(F)(F)F)cc(C(F)(F)F)c3)CC2)C1,AC50,Cytochrome P450 1A2,12.6 µM (inconclusive)
same,AC50,Cytochrome P450 3A4,15.8 µM (inconclusive)
same,AC50,Cytochrome P450 2C9,39.8 µM (inconclusive)
CN1CCc2nc3ccc(F)cc3c(C(N)=O)c2C1,AC50,Cytochrome P450 2C19,39.8 µM (inconclusive)
same,AC50,Cytochrome P450 1A2,25.1 µM (inconclusive)
same,AC50,Cytochrome P450 2C9,17.8 µM (inconclusive)
